Test results taken from PubChem BioAssay AID248 (DTP/NCI, 2004).
Where “and” joins values, the source holds several entries; their conditions need not be identical. Equal entries are not always repeated. Inconclusive results and toxic doses are left out. Cut-off read from the data, not from the text of the source: active = T/C of 150% or more; inactive = T/C below 125%.

System: L1210 leukemia ip in BDF1 mice, survival T/C
Assay: NCI In Vivo Anticancer Drug Screen. Data for tumor model L1210 Leukemia (intraperitoneal) in B6D2F1 (BDF1) mice
Conditions: endpoint: mean survival time, higher = longer survival
Procedure, shortened: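 Each compound was tested against a transplantable tumor grown in mice. The endpoint was survival, with treated animals benchmarked against vehicle controls as a simple ratio.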

[1] = dose: 100.0 mg/kg/injection, schedule: Q01DX009 (ip), vehicle: Klucel (hydroxypropylcellulose) (HPC)
[2] = dose: 200.0 mg/kg/injection, schedule: Q01DX009 (ip), vehicle: Klucel (hydroxypropylcellulose) (HPC)
[3] = dose: 400.0 mg/kg/injection, schedule: Q01DX009 (ip), vehicle: Klucel (hydroxypropylcellulose) (HPC)
[4] = dose: 100.0 mg/kg/injection, schedule: Q01DX001 (ip), vehicle: Klucel (hydroxypropylcellulose) (HPC)
[5] = dose: 100.0 mg/kg/injection, schedule: Q04DX002 (ip), vehicle: Klucel (hydroxypropylcellulose) (HPC)
[6] = dose: 200.0 mg/kg/injection, schedule: Q04DX002 (ip), vehicle: Klucel (hydroxypropylcellulose) (HPC)
[7] = dose: 1.56 mg/kg/injection, schedule: Q01DX009 (ip), vehicle: Klucel (hydroxypropylcellulose) (HPC)

Measured: T/C

Nc1nc(=O)n(C2OC(CO)C(O)C2O)cc1Cl (configuration not stated)
active: dose: 200.0 mg/kg/injection, schedule: Q01DX005 (ip), vehicle: saline 150 % of control | dose: 200.0 mg/kg/injection, schedule: Q01DX009 (ip), vehicle: saline 160 % of control | dose: 400.0 mg/kg/injection, schedule: Q01DX009 (ip), vehicle: saline 176 % of control

CCOC(=O)C(C#N)C(C)CC (configuration not stated)
inactive: [1] 102 % of control | dose: 100.0 mg/kg/injection, schedule: Q04DX003 (ip), vehicle: Klucel (hydroxypropylcellulose) (HPC) 98 % of control | [2] 98 % of control | dose: 200.0 mg/kg/injection, schedule: Q04DX003 (ip), vehicle: Klucel (hydroxypropylcellulose) (HPC) 102 % of control | [3] 94 % of control | dose: 400.0 mg/kg/injection, schedule: Q04DX003 (ip), vehicle: Klucel (hydroxypropylcellulose) (HPC) 90 % of control

CC1(CCCOc2ccccc2C(=O)NCBr)N=C(N)N=C(N)N1c1ccccc1 (configuration not stated)
inactive: [4] 104 % of control

CC(=O)Nc1ncnc(NC(C)=O)c1N=O
inactive: dose: 100.0 mg/kg/injection, schedule: Q01DX001 (ip), vehicle: saline 93 % of control | dose: 200.0 mg/kg/injection, schedule: Q01DX001 (ip), vehicle: saline 102 % of control

Cc1nc2c([N+](=O)[O-])cccn2n1
inactive: dose: 100.0 mg/kg/injection, schedule: Q01DX001 (ip), vehicle: acetone 98 % of control

COc1ccc(N=C(C)CC(C)=O)cc1
inactive: [4] 101 % of control | [1] 108 % of control | dose: 200.0 mg/kg/injection, schedule: Q01DX001 (ip), vehicle: Klucel (hydroxypropylcellulose) (HPC) 103 % of control | [2] 97 % of control | dose: 400.0 mg/kg/injection, schedule: Q01DX001 (ip), vehicle: Klucel (hydroxypropylcellulose) (HPC) 101 % of control | [3] 102 % of control

CCC(=O)Nc1ccccc1C
inactive: [5] 92 % of control | [6] 103 % of control | dose: 400.0 mg/kg/injection, schedule: Q04DX002 (ip), vehicle: Klucel (hydroxypropylcellulose) (HPC) 110 % of control

Cc1ccc(S/N=C/c2c(O)ccc3ccccc23)cc1
inactive: dose: 100.0 mg/kg/injection, schedule: Q04DX002 (ip), vehicle: other 91 % of control | dose: 200.0 mg/kg/injection, schedule: Q04DX002 (ip), vehicle: other 102 % of control | dose: 400.0 mg/kg/injection, schedule: Q04DX002 (ip), vehicle: other 94 % of control

Brc1sccc1-c1cccc2ccccc12
inactive: dose: 100.0 mg/kg/injection, schedule: Q04DX003 (ip), vehicle: saline with Tween-80 94 % of control | dose: 400.0 mg/kg/injection, schedule: Q04DX003 (ip), vehicle: saline with Tween-80 91 % of control

CC1(C)CCC2=C(O1)c1ccccc1C(=O)C2=O
inactive: dose: 25.0 mg/kg/injection, schedule: Q01DX001 (ip), vehicle: Klucel (hydroxypropylcellulose) (HPC) 102 % of control | dose: 50.0 mg/kg/injection, schedule: Q01DX001 (ip), vehicle: Klucel (hydroxypropylcellulose) (HPC) 98 % of control | [4] 94 % of control and 102 % of control

CCC[CH2][Sn]([CH2]CCC)([O]S(C)(=O)=O)[O]S(C)(=O)=O
inactive: [7] 105 % of control | dose: 3.12 mg/kg/injection, schedule: Q01DX009 (ip), vehicle: Klucel (hydroxypropylcellulose) (HPC) 105 % of control

COc1cc(CC2c3ccccc3CC[N+]2(C)C)c(Oc2cc(CC3c4ccccc4CC[N+]3(C)C)ccc2OC)cc1OC (configuration not stated)
inactive: dose: 0.78 mg/kg/injection, schedule: Q01DX009 (ip), vehicle: Klucel (hydroxypropylcellulose) (HPC) 103 % of control | [7] 97 % of control | dose: 3.13 mg/kg/injection, schedule: Q01DX009 (ip), vehicle: Klucel (hydroxypropylcellulose) (HPC) 100 % of control

O=C(Nc1ccc(Cl)cc1)Nc1ccccc1Cl
inactive: dose: 100.0 mg/kg/injection, schedule: Q01DX009 (ip), vehicle: gum acacia 91 % of control | dose: 100.0 mg/kg/injection, schedule: Q04DX003 (ip), vehicle: gum acacia 100 % of control | dose: 200.0 mg/kg/injection, schedule: Q01DX009 (ip), vehicle: gum acacia 87 % of control | dose: 200.0 mg/kg/injection, schedule: Q04DX003 (ip), vehicle: gum acacia 96 % of control | dose: 400.0 mg/kg/injection, schedule: Q01DX009 (ip), vehicle: gum acacia 89 % of control | dose: 400.0 mg/kg/injection, schedule: Q04DX003 (ip), vehicle: gum acacia 102 % of control

CCOC(=O)NC12c3ccccc3C(c3ccccc31)C(C(=O)O)C2C(=O)O (configuration not stated)
inactive: dose: 100.0 mg/kg/injection, schedule: Q04DX003 (ip), vehicle: saline sonified 90 % of control | dose: 200.0 mg/kg/injection, schedule: Q04DX003 (ip), vehicle: saline sonified 119 % of control | dose: 400.0 mg/kg/injection, schedule: Q04DX003 (ip), vehicle: saline sonified 90 % of control

CCC(C)C(C=NCC(CCN1CCOCC1)(c1ccc2ccccc2c1)C(C)CC)(CCN1CCOCC1)c1ccc2ccccc2c1 (configuration not stated)
inactive: dose: 50.0 mg/kg/injection, schedule: Q04DX002 (ip), vehicle: Klucel (hydroxypropylcellulose) (HPC) 100 % of control | [5] 92 % of control | [6] 92 % of control
